Measurements from US20190127805A1, “GENE SIGNATURES FOR CANCER DETECTION AND TREATMENT” (ALMAC DIAGNOSTICS LIMITED, priority 2016, published 2019).
Blank lines part the entries; values can stand above or below the compound they belong to.

Tests used:
[1] = test system: OVCAR3 cisplatin resistant cell line; assay: Western blot of EMT and MAPK pathway markers, OVCAR3 cisplatin resistant cells; assay type: cell-based, human; conditions: 1 nM and 10 nM, 24 hour treatment; western blot (FIG. 30b)
[2] = test system: Kuramochi cells; assay: Western blot of EMT and MAPK pathway markers, Kuramochi cells; assay type: cell-based; conditions: western blot (FIG. 30a)
[3] = test system: OVCAR3 platinum resistant cell line; assay: xCELLigence invasion assay; assay type: cell-based, human; conditions: 0.1 nM, 1 nM and 10 nM (p=0.0211, p=0.0026, p=0.3373) (FIG. 30d)
Procedure: The invasion assay was performed using the xCELLigence RTCA DP system and carried out with CIM-plate 16 (ACEA bioscience).
Normal cell media growth conditions (RPMI 1640, 1% L-Glut and 20% FCS) was the chemoattractant condition used in the bottom chamber. 160 μl of the chemoattractant was added to each bottom chamber of a CIM-plate 16. The CIM-Plate 16 is assembled by placing the top chamber onto the bottom chamber and snapping the two together. 20 μl Matrigel growth factor reduced (GFR) (phenol-red free) basement membrane matrix (Cornig, ref: 356231) was diluted in 400 μl optimem (serum free) giving a final working concentration of GFR Matrigel of 5%. […]
The protocol is optimized for the two paired cancer cell lines: OVCAR3, OVCAR4 parental and OVCAR3, OVCAR4 platinum resistant cell lines. […] Once the CIM-Plate 16 has been equilibrated, it is placed in the RTCA DP station and the background cell-index values are measured. […] The CIM-Plate 16 is placed in the RTCA DP station and migration is monitored every 5 minutes for several hours.
Each experimental condition was performed in triplicate. For quantification of the migration rate, the slope of the curve was used to determine the rate if change in cell index. The average and standard deviation slope values were then quantified relative to that at the control condition.

[4] = test system: OVCAR3-WT, OVCAR3-CP, OVCAR4-WT and OVCAR4-CP cells; assay: 10-day colony formation assay with ALM201 (FIG. 30c); assay type: cell-based, human; conditions: OVCAR3 and OVCAR4 cells (FIG. 30c)
Procedure: (§1) Cells were seeded at predetermined densities, 24 hours later treated with drug, which was replenished every 3-4 days. After 10 days, cells were washed with PBS, fixed in methanol, stained with crystal violet and colonies counted. The surviving fraction (SF) for a given dose was calculated and dose-response curves plotted and IC50 generated using Graph Pad Prism™ 5. Receiver operator curves (ROC) were plotted by dicotomising the IC50 values based on the median of the IC50 and defining the higher IC50 values as resistant and the lower IC50 values as sensitive. The gene signatures associated with the cell lines were plotted based on sensitive and resistant cells. Additionally ROCs were plotted by dicotomising the signature scores based on the median of the scores and defining the higher signature score as signature positive and the lower signature scores as signature negative. The IC50s associated with the cell lines were plotted based on signature positive and signature negative cells.
OVCAR3 and OVCAR4 cells were trypsinised and relevant cell numbers were seeded into P90 plates. Cells were allowed to adhere overnight. The following day media was removed and replaced with media containing 25 nM cisplatin. The concentration of cisplatin was increased every 2 weeks, doubling the concentration at every increment. […]

[5] = test system: OVCAR3 platinum resistant cell line; assay: xCELLigence migration assay; assay type: cell-based, human; conditions: 0.1 nM, 1 nM and 10 nM (p=0.08544, p=0.015522, p=0.036739) (FIG. 30d)
Procedure: The migration assay was performed using the xCELLigence RTCA DP system and carried out with CIM-plate 16 (ACEA Bioscience). Endothelial progenitor cell conditioned media, fresh endothelial media with growth factors (VEGF, IGF-1, bFGF, EGF) with 10% foetal bovine serum (FBS) and endothelial media with 10% foetal bovine serum (FBS) only, were the three chemo-attractant conditions used in the bottom chamber. 160 μl of the chemo-attractant was added to each bottom chamber of a CIM-plate 16. The CIM-Plate 16 is assembled by placing the top chamber onto the bottom chamber and snapping the two together. 30 μl pf serum-free medium is placed in the top chamber to hydrate and pre-incubate the membrane for 2 hours in the CO2 incubator at 37° C. before obtaining a background measurement. The protocol is optimised for the two paired cancer cell lines: OVCAR3, OVCAR4 parental and OVCAR3, OVCAR4 platinum resistant cell lines. […] Once the CIM-Plate 16 has been equilibrated, it is placed in the RTCA DP station and the background cell-index values are measured. […] The CIM-Plate 16 is placed in the RTCA DP station and migration is monitored every 5 minutes for several hours. […] For quantification of the migration rate, the slope of the curve was used to determine the rate if change in cell index. The average and standard deviation slope values were then quantified relative to the controls.

[6] = test system: OVCAR3 and OVCAR4 cisplatin-resistant cells; assay: CellTiter Glo cell viability assay; assay type: cell-based; conditions: Homo sapiens; 48 hour time point; cell line not stated in legend (FIG. 43A)
Procedure: Cells were trysanised and counted using the Countess™ Automated Cell Counter. 5,000 cells were seeded into each well of a 96 well plate. Cells were allowed to adhere overnight and were then treated with titrated concentrations of cisplatin, cedirianib and nintedanib (10 μM to 0.005 μM concentration). […] The 96 well plate was allowed to stand at room temperature for 20-30 mins. In the meantime the CellTiter-Glo Luminescent was allowed to thaw from the −20 freezer. Following the 20-30 minute incubation, 75 μl of the CellTiter-Glo Luminescent was added per well, this was then shaken for 2 minutes and then allowed to stand for 10 minutes. The analysis was performed using the Bioscience BioTek plate reader.

[7] = test system: OVCAR3-WT cells; assay: 10-day colony formation assay, OVCAR3-WT (cisplatin sensitive/naive); assay type: cell-based, human
Procedure: as §1

[8] = test system: OVCAR3-CP cells; assay: 10-day colony formation assay, OVCAR3-CP (cisplatin resistant); assay type: cell-based, human; conditions: for fold change: cisplatin-resistant OVCAR3 relative to OVCAR3 cisplatin-naïve, colony formation
Procedure: as §1, with “negative cells. OVCAR3 and OVCAR4 cells were trypsinised and relevant cell numbers were seeded into P90 plates. Cells were allowed to adhere overnight. The following day media was removed and replaced with media containing 25 nM cisplatin. The concentration of cisplatin was increased every 2 weeks, doubling the concentration at every increment. Batches of cells were frozen every two weeks upon increasing the concentration of cisplatin. Once cells were stably growing at 200 nM cisplatin, sensitivity to cisplatin was tested by clonogenic assay. Cells were continuously grown in 200 nM cisplatin.” for “negative cells.”

[9] = test system: OVCAR3 and OVCAR4 cisplatin-resistant cells; assay: Western blot of VEGFa protein expression; assay type: cell-based, human; conditions: IC50 concentration; western blot (FIG. 43B)
[10] = test system: relapsed platinum sensitive epithelial ovarian cancer; conditions: cited from earlier work
[11] = Homo sapiens, OVCAR-3, 240 h, OVCAR3 cisplatin-naïve, 10-day colony formation (FIG. 42)
[12] = Homo sapiens, OVCAR-3, 240 h, OVCAR3 cisplatin-resistant, 10-day colony formation (FIG. 42)

Compound: IRQQPRDPPTETLELEVSPDPAS (listed as Homo sapiens) [ALM201]
EMT markers [1]: reversing EMT markers
MAPK pathway [1]: downregulation of the MAPK pathway
EMT signalling [2]: reduced
MAPK signalling [2]: reduced
invasion potential [3]: inhibited
proliferation capacity [4]: inhibited the proliferation capacity
migration potential [5]: inhibited

IC50 [6]: 5.57 µM
IC50 [7, 11]: 4.99 µM
IC50 [8, 12]: 1.19 µM
Compound: COc1cc2c(Oc3ccc4[nH]c(C)cc4c3F)ncnc2cc1OCCCN1CCCC1 [Cediranib]
fold change [8]: 0.2391
expression of the VEGFR ligand, VEGFa [9]: downregulated
PFS ([10]; cediranib with platinum chemotherapy and maintenance (reference 9.4 months)): 11.4 months
overall survival ([10]; cediranib with platinum chemotherapy and maintenance (reference 17.6 months)): 20.3 months
HR for PFS ([10]; p-value=0.0022): 0.68
HR for overall survival ([10]; p-value=0.0419): 0.70

IC50 [6]: 9.1 µM
IC50 [7, 11]: > 10 µM
IC50 [8, 12]: 3.78 µM
Compound: COC(=O)c1ccc2c(c1)NC(=O)/C2=C(\Nc1ccc(N(C)C(=O)CN2CCN(C)CC2)cc1)c1ccccc1 [Nintedanib]
fold change [8]: 0.377
expression of the VEGFR ligand, VEGFa [9]: downregulated

Compound: N.N.[Cl][Pt][Cl] [cisplatin]
IC50 ([7]; OVCAR3-WT, cisplatin alone): 0.066 µM
IC50 ([7]; OVCAR3-WT, cisplatin with addition of 0.5 uM Trametinib): 0.033 µM
fold decrease in the IC50 ([7]; OVCAR3-WT, following addition of Trametinib to cisplatin): 2 fold
IC50 ([7]; cisplatin sensitive OVCAR3 cells, colony formation (FIG. 2a)): 0.066 µM
IC50 ([8]; OVCAR3-CP, cisplatin with addition of Trametinib): 0.06 µM
fold decrease in the IC50 ([8]; OVCAR3-CP, following addition of Trametinib to cisplatin): 4.8 fold
IC50 ([8]; cisplatin resistant OVCAR3 cells, colony formation (FIG. 2a)): 0.29 µM
fold difference in IC50 doses ([8]; cisplatin resistant vs cisplatin sensitive OVCAR3 cells): 4.4 fold
